Experiments:
[1] = molecular target: central benzodiazepine receptors; test: Inhibition of binding of tritiated diazepam at specific benzodiazepine receptors in the cerebral cortex; settings: 50 percent inhibition of specific binding of tritiated diazepam
Experimental: The affinity of compounds of general formula I to the central benzodiazepine receptors was determined according to the method described in Life Science 20, 2101-2110 (1977) and Science 198, 849-851 ([…]). According to this method, the inhibition of the binding of tritiated diazepam at the specific benzodiazepine receptors in the cerebral cortex by the respective test substances is ascertained. The IC50 ("50% inhibiting concentration") is that concentration of the respective test substance which brings about a 50 percent inhibition of the specific binding of the tritiated diazepam at the specific benzodiazepine receptors in the cerebral cortex.

[2] = test system: spasmodic seizures caused by pentetrazole; test: Antipentetrazole test (anticonvulsant); format: in vivo; settings: Rattus norvegicus, po, 0.5 h; female rats 60-80 g, p.o., 30 minutes before 120 mg/kg pentetrazole i.p.; protects 50% of animals
Experimental: The central properties of the compounds of formula I in accordance with the invention can be determined, for example, in the antipentetrazole test which is described hereinafter and which is generally recognized for recording anticonvulsant properties.
In this animal experiment the compound under investigation is administered orally to female rats weighing 60-80 g and 30 minutes later there are administered i.p. 120 mg/kg of pentetrazole, which causes emprosthotonus and tonic stretchings of the fore and/or hind limbs in unprotected experimental animals 1-4 minutes after the injection. Ten experimental animals are used per dosage of test substance. After counting the protected experimental animals the ED50 is determined according to the Probit method. The ED50 is that dosage which protects 50% of the experimental animals from the spasmodic seizures caused by pentetrazole.

[3] = Acute toxicity, single oral administration to mice; settings: mouse, in vivo
Source text: The results which have been obtained with representative members of the class of compound defined by general formula I in the experiments described previously are compiled in the following Table. Moreover, the Table contains data concerning the acute toxicity of some of these compounds (LD50 in mg/kg in the case of single oral administration to mice).

Cc1noc(-c2ncn3c2CN(C)C(=O)c2c(Cl)cccc2-3)n1
IC50 [1]: 3.9 nM | ED50 [2]: 0.43 mg/kg | LD50 [3]: 1250 to 2500 mg/kg

COCc1noc(-c2ncn3c2[C@@H]2CCCN2C(=O)c2c(Cl)cccc2-3)n1
IC50 [1]: 5.2 nM | ED50 [2]: 0.39 mg/kg

Cc1noc(-c2ncn3c2[C@@H]2CCCN2C(=O)c2c(Br)cccc2-3)n1 [Example 5, (S)-8-bromo-11,12,13,13a-tetrahydro-1-(3-methyl-1,2,4-oxadiazol-5-yl)9H-imidazo[1,5-a]pyrrolo[2,1-c][1,4] benzodiazepin-9-one]
IC50 [1]: 2.1 nM | ED50 [2]: 0.068 mg/kg | LD50 [3]: 2500 to 5000 mg/kg

O=C1c2c(Cl)cccc2-n2cnc(-c3nc(C4CC4)no3)c2[C@@H]2CCCN12
IC50 [1]: 2.2 nM | ED50 [2]: 0.2 mg/kg | LD50 [3]: 1250 to 2500 mg/kg

Cc1noc(-c2ncn3c2[C@@H]2CCN2C(=O)c2c-3cccc2C(F)(F)F)n1 [Example 9, (S)-12,12a-dihydro-1-(3-methyl-1,2,4-oxadiazol-5-yl)-8-(trifluoromethyl)-9H,11H-azeto[2,1-c]imidazo[1,5-a][1,4]benzodiazepin-9-one]
IC50 [1]: 3.7 nM | ED50 [2]: 0.021 mg/kg

CN1Cc2c(-c3nc(C4CC4)no3)ncn2-c2cccc(Cl)c2C1=O
IC50 [1]: 4.5 nM | ED50 [2]: 0.034 mg/kg

Cc1noc(-c2ncn3c2[C@@H]2CCCN2C(=O)c2c(Cl)cccc2-3)n1
IC50 [1]: 2.3 nM | ED50 [2]: 0.08 mg/kg | LD50 [3]: 2000 to 4000 mg/kg

CON=Cc1ncn2c1[C@@H]1CCN1C(=O)c1c(Cl)cccc1-2 [Example 23, (S)-8-chloro-12,12a-dihydro-9-oxo-9H,11H-azeto[2,1-c]imidazo[1,5-a][1,4]benzodiazepine-1-carboxaldehyde O-methyl oxime]
IC50 [1]: 10 nM | ED50 [2]: 0.63 mg/kg

CN1Cc2c(-c3nc(C4CC4)no3)ncn2-c2ccc(F)cc2C1=O
IC50 [1]: 5.6 nM | ED50 [2]: 0.23 mg/kg

Cc1noc(-c2ncn3c2[C@@H]2CCCN2C(=O)c2c-3ccc(F)c2Cl)n1 [Example 4, (S)-8-chloro-7-fluoro-11,12,13,13a-tetrahydro-1-(3-methyl-1,2,4-oxadiazol-5-yl)-9H-imidazo[1,5-a]pyrrolo[2,1-c][1,4]benzodiazepin-9-one]
IC50 [1]: 5.2 nM | ED50 [2]: 0.082 mg/kg | LD50 [3]: 1250 to 2500 mg/kg

Cc1nnc(-c2ncn3c2[C@@H]2CCCN2C(=O)c2c(Cl)cccc2-3)o1
IC50 [1]: 8.4 nM | ED50 [2]: 2.7 mg/kg | LD50 [3]: 312 to 625 mg/kg

O=C1c2c(Cl)cccc2-n2cnc(-c3noc(C(F)(F)F)n3)c2[C@@H]2CCCN12
IC50 [1]: 9.6 nM | ED50 [2]: 1.2 mg/kg

Cc1noc(-c2ncn3c2C2CCN2C(=O)c2c(Cl)cccc2-3)n1 (racemic)
IC50 [1]: 10 nM | ED50 [2]: 0.32 mg/kg
